# Test results taken from US12122767B2, “Bicyclic heterocycles as FGFR inhibitors” (Incyte Corporation, priority 2019, dated 2024).
# Biological target: T1, FGFR3 enzyme (Millipore) (Homo sapiens, UniProt P22607)
# T1 construct: purchased Millipore
# Experiment: FGFR Enzymatic Assay (peptide phosphorylation, FRET)
# Format: biochemical
# Settings: pre-incubated for 4 hours; ATP 140 μM, peptide 500 nM
# Description: The inhibitor potency of the exemplified compounds was measured in an enzyme assay that measures peptide phosphorylation using FRET measurements to detect product formation. Inhibitors were serially diluted in DMSO and a volume of 0.5 μL was transferred to the wells of a 384-well plate. For FGFR3, a 10 μL volume of FGFR3 enzyme (Millipore) diluted in assay buffer (50 mM HEPES, 10 mM MgCl2, 1 mM EGTA, 0.01% Tween-20, 5 mM DTT, pH 7.5) was added to the plate and pre-incubated for a time between 5-10 minutes and up to 4 hours. Appropriate controls (enzyme blank and enzyme with no inhibitor) were included on the plate. The assay was initiated by the addition of a 10 μL solution containing biotinylated EQEDEPEGDYFEWLE peptide substrate (SEQ ID NO: 1) and ATP (final concentrations of 500 nM and 140 μM respectively) in assay buffer to the wells. The plate was incubated at 25° C. for 1 hr. The reactions were ended with the addition of 10 μL/well of quench solution (50 mM Tris, 150 mM NaCl, 0.5 mg/mL BSA, pH 7.8; 30 mM EDTA with Perkin Elmer Lance Reagents at 3.75 nM Eu-antibody PY20 and 180 nM APC-Streptavidin). The plate was allowed to equilibrate for ˜1 hr before scanning the wells on a PheraStar plate reader (BMG Labtech).
# GraphPad prism3 was used to analyze the data. The IC50 values were derived by fitting the data to the equation for a sigmoidal dose-response with a variable slope. Y=Bottom+(Top-Bottom)/(1+10^((Log IC50−X)*HillSlope)) where X is the logarithm of concentration and Y is the response.
# Table 1 provides IC50 data for compounds of the invention assayed in the FGFR Enzymatic Assay after dilution in assay buffer, added to the plate and pre-incubated for 4 hours.
# T1 sequence (P22607 23-806): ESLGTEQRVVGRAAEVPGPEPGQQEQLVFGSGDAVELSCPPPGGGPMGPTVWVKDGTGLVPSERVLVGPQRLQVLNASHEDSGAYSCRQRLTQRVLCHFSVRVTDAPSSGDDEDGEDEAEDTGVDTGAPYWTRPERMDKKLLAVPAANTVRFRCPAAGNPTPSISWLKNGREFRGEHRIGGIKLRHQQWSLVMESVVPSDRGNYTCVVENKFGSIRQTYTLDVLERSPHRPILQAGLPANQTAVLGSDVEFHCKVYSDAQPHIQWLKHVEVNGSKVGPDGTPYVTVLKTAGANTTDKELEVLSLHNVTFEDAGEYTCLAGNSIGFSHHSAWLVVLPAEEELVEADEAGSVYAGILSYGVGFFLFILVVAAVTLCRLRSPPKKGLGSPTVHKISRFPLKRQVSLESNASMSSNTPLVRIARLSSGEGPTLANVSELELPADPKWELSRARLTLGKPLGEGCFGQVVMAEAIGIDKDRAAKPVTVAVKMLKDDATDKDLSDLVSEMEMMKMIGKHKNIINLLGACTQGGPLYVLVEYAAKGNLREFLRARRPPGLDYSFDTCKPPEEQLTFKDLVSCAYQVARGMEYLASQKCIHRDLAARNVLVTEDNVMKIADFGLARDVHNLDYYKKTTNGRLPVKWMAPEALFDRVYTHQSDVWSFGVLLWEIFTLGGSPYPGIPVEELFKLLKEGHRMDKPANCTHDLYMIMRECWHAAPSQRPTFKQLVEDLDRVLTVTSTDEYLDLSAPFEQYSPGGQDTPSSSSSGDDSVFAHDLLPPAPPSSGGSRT
row,Compound,IC50 [nM]
1,"Cn1cc(-c2n[nH]c3cc(Cl)c(C(=O)Nc4c(F)cccc4Cl)cc23)cn1 [Example 16, 6-Chloro-N-(2-chloro-6-fluorophenyl)-3-(1-methyl-1H-pyrazol-4-yl)-1H-indazole-5-carboxamide]",≥ 200
2,"COc1cc2[nH]nc(-c3cnn(C)c3)c2cc1C(=O)Nc1c(C)cc(F)cc1C [Example 5, N-(4-Fluoro-2,6-dimethylphenyl)-6-methoxy-3-(1-methyl-1H-pyrazol-4-yl)-1H-indazole-5-carboxamide]",< 10
3,"Cc1cc2[nH]nc(-c3cnn(C)c3)c2cc1C(=O)Nc1c(C)cccc1F [Example 14, N-(2-Fluoro-6-methylphenyl)-6-methyl-3-(1-methyl-1H-pyrazol-4-yl)-1H-indazole-5-carboxamide]",≥ 200
4,"COc1cc(C)c(NC(=O)c2cc3c(-c4cnn(C)c4)n[nH]c3cc2OC)c(C)c1 [Example 10, 6-Methoxy-N-(4-methoxy-2,6-dimethylphenyl)-3-(1-methyl-1H-pyrazol-4-yl)-1H-indazole-5-carboxamide]",30 to 200
5,"COc1cc2[nH]nc(-c3cnn(C4CN(C(=O)N(C)C)C4)c3)c2cc1C(=O)Nc1c(C)cccc1C [Example 22, 3-(1-(1-(Dimethylcarbamoyl)azetidin-3-yl)-1H-pyrazol-4-yl)-N-(2,6-dimethylphenyl)-6-methoxy-1H-indazole-5-carboxamide]",< 10
6,"Cc1cccc(C)c1NC(=O)c1cc2c(-c3cnn(C)c3)n[nH]c2cc1Cl [Example 13, 6-Chloro-N-(2,6-dimethylphenyl)-3-(1-methyl-1H-pyrazol-4-yl)-1H-indazole-5-carboxamide]",30 to 200
7,"Cc1cccc(F)c1NC(=O)c1cc2c(-c3cnn(C)c3)n[nH]c2cc1Cl [Example 15, 6-Chloro-N-(2-fluoro-6-methylphenyl)-3-(1-methyl-1H-pyrazol-4-yl)-1H-indazole-5-carboxamide]",≥ 200
8,"COc1cc2[nH]nc(-c3cnn(C)c3)c2cc1C(=O)Nc1c(C)cccc1C [Example 1, N-(2,6-Dimethylphenyl)-6-methoxy-3-(1-methyl-1H-pyrazol-4-yl)-1H-indazole-5-carboxamide]",< 10
9,"COc1cc2[nH]nc(-c3cnn(C)c3)c2cc1C(=O)Nc1c(C)cccc1F [Example 8, N-(2-Fluoro-6-methylphenyl)-6-methoxy-3-(1-methyl-1H-pyrazol-4-yl)-1H-indazole-5-carboxamide]",< 10
10,"CCc1cccc(C)c1NC(=O)c1cc2c(-c3cnn(C)c3)n[nH]c2cc1OC [Example 6, N-(2-Ethyl-6-methylphenyl)-6-methoxy-3-(1-methyl-1H-pyrazol-4-yl)-1H-indazole-5-carboxamide]",< 10
11,"COc1cc2[nH]nc(-c3ccc(N4CCN(C)CC4)cc3)c2cc1C(=O)Nc1c(C)cccc1C [Example 21, N-(2,6-Dimethylphenyl)-6-methoxy-3-(4-(4-methylpiperazin-1-yl)phenyl)-1H-indazole-5-carboxamide]",< 10
12,"COc1cc2[nH]nc(-c3ccc(N4CCN(C(C)=O)CC4)cc3)c2cc1C(=O)Nc1c(C)cccc1C [Example 20, 3-(4-(4-Acetylpiperazin-1-yl)phenyl)-N-(2,6-dimethylphenyl)-6-methoxy-1H-indazole-5-carboxamide]",< 10
13,"CCc1cccc(CC)c1NC(=O)c1cc2c(-c3cnn(C)c3)n[nH]c2cc1OC [Example 7, N-(2,6-Diethylphenyl)-6-methoxy-3-(1-methyl-1H-pyrazol-4-yl)-1H-indazole-5-carboxamide]",< 10
14,"COc1cc2[nH]nc(-c3cnn(C4CCN(C(C)=O)CC4)c3)c2cc1C(=O)Nc1c(C)cccc1C [Example 25, 3-(1-(1-Acetylpiperidin-4-yl)-1H-pyrazol-4-yl)-N-(2,6-dimethylphenyl)-6-methoxy-1H-indazole-5-carboxamide]",< 10
15,"COc1cc2[nH]nc(-c3cnn(C)c3)c2cc1C(=O)Nc1c(C)cccc1Cl [Example 3, N-(2-Chloro-6-methylphenyl)-6-methoxy-3-(1-methyl-1H-pyrazol-4-yl)-1H-indazole-5-carboxamide]",< 10
16,"Cc1cc2[nH]nc(-c3cnn(C)c3)c2cc1C(=O)Nc1c(C)cccc1C [Example 12, N-(2,6-Dimethylphenyl)-6-methyl-3-(1-methyl-1H-pyrazol-4-yl)-1H-indazole-5-carboxamide]",≥ 200
17,"CCNC(=O)Cn1cc(-c2n[nH]c3cc(OC)c(C(=O)Nc4c(C)cccc4C)cc23)cn1 [Example 19, N-(2,6-Dimethylphenyl)-3-(1-(2-(ethylamino)-2-oxoethyl)-1H-pyrazol-4-yl)-6-methoxy-1H-indazole-5-carboxamide]",10 to 30

# Results, then the compound that gave them:
row,IC50 [nM],Compound
1,< 10,"COc1cc2[nH]nc(-c3cnn(Cc4ccccn4)c3)c2cc1C(=O)Nc1c(C)cccc1C [Example 37, N-(2,6-Dimethylphenyl)-6-methoxy-3-(1-(pyridin-2-ylmethyl)-1H-pyrazol-4-yl)-1H-indazole-5-carboxamide]"
2,< 10,"COc1cc2[nH]nc(-c3cnn(C4CCC4)c3)c2cc1C(=O)Nc1c(C)cccc1C [Example 43, 3-(1-Cyclobutyl-1H-pyrazol-4-yl)-N-(2,6-dimethylphenyl)-6-methoxy-1H-indazole-5-carboxamide]"
3,< 10,"COc1cc2[nH]nc(-c3cnn(C4CC4)c3)c2cc1C(=O)Nc1c(C)cccc1C [Example 44, 3-(1-Cyclopropyl-1H-pyrazol-4-yl)-N-(2,6-dimethylphenyl)-6-methoxy-1H-indazole-5-carboxamide]"
4,10 to 30,"COc1cc2[nH]nc(-c3cnn(Cc4cccnc4)c3)c2cc1C(=O)Nc1c(C)cccc1C [Example 41, N-(2,6-Dimethylphenyl)-6-methoxy-3-(1-(pyridin-3-ylmethyl)-1H-pyrazol-4-yl)-1H-indazole-5-carboxamide]"
5,< 10,"COc1cc2[nH]nc(-c3cnn(C4CCOCC4)c3)c2cc1C(=O)Nc1c(C)cccc1C [Example 35, N-(2,6-Dimethylphenyl)-6-methoxy-3-(1-(tetrahydro-2H-pyran-4-yl)-1H-pyrazol-4-yl)-1H-indazole-5-carboxamide]"
6,10 to 30,"COc1cc2[nH]nc(-c3cnn(C)c3)c2cc1C(=O)Nc1c(C)cc(NS(C)(=O)=O)cc1C [Example 27, N-(2,6-Dimethyl-4-(methylsulfonamido)phenyl)-6-methoxy-3-(1-methyl-1H-pyrazol-4-yl)-1H-indazole-5-carboxamide]"
7,< 10,"COc1cc2[nH]nc(-c3cnn(C4CN(C(C)=O)C4)c3)c2cc1C(=O)Nc1c(C)cccc1C [Example 33, 3-(1-(1-Acetylazetidin-3-yl)-1H-pyrazol-4-yl)-N-(2,6-dimethylphenyl)-6-methoxy-1H-indazole-5-carboxamide]"
8,< 10,"COC(=O)N1CC(n2cc(-c3n[nH]c4cc(OC)c(C(=O)Nc5c(C)cccc5C)cc34)cn2)C1 [Example 31, Methyl 3-(4-(5-((2,6-dimethylphenyl)carbamoyl)-6-methoxy-1H-indazol-3-yl)-1H-pyrazol-1-yl)azetidine-1-carboxylate]"
9,10 to 30,"COc1cc2[nH]nc(-c3cnn(CCO)c3)c2cc1C(=O)Nc1c(C)cccc1C [Example 38, N-(2,6-Dimethylphenyl)-3-(1-(2-hydroxyethyl)-1H-pyrazol-4-yl)-6-methoxy-1H-indazole-5-carboxamide]"
10,< 10,"COc1cc2[nH]nc(-c3cnn(C4CCOC4)c3)c2cc1C(=O)Nc1c(C)cccc1C (centres unmarked) [Example 36, N-(2,6-Dimethylphenyl)-6-methoxy-3-(1-(tetrahydrofuran-3-yl)-1H-pyrazol-4-yl)-1H-indazole-5-carboxamide]"
11,< 10,"CCNC(=O)N1CC(n2cc(-c3n[nH]c4cc(OC)c(C(=O)Nc5c(C)cccc5C)cc34)cn2)C1 [Example 30, N-(2,6-Dimethylphenyl)-3-(1-(1-(ethylcarbamoyl)azetidin-3-yl)-1H-pyrazol-4-yl)-6-methoxy-1H-indazole-5-carboxamide]"
12,10 to 30,"COc1cc2[nH]nc(-c3cnn(CCN4CCOCC4)c3)c2cc1C(=O)Nc1c(C)cccc1C [Example 40, N-(2,6-Dimethylphenyl)-6-methoxy-3-(1-(2-morpholinoethyl)-1H-pyrazol-4-yl)-1H-indazole-5-carboxamide]"
13,< 10,"COc1cc2[nH]nc(-c3cnn(C4CN(S(C)(=O)=O)C4)c3)c2cc1C(=O)Nc1c(C)cccc1C [Example 32, N-(2,6-Dimethylphenyl)-6-methoxy-3-(1-(1-(methylsulfonyl)azetidin-3-yl)-1H-pyrazol-4-yl)-1H-indazole-5-carboxamide]"
14,< 10,"COc1cc2[nH]nc(-c3ccc(N4CCN(C)CC4)nc3)c2cc1C(=O)Nc1c(C)cccc1C [Example 26, N-(2,6-Dimethylphenyl)-6-methoxy-3-(6-(4-methylpiperazin-1-yl)pyridin-3-yl)-1H-indazole-5-carboxamide]"
15,30 to 200,"COc1cc2[nH]nc(-c3cnn(C)c3)c2cc1C(=O)Nc1c(C)cc(NC(C)=O)cc1C [Example 28, N-(4-Acetamido-2,6-dimethylphenyl)-6-methoxy-3-(1-methyl-1H-pyrazol-4-yl)-1H-indazole-5-carboxamide]"
